The subject of series [1] is contact dermatitis induced by benzalkonium chloride. As to the kind of experiment: Anti-inflammatory properties in vivo, contact dermatitis induced by benzalkonium chloride (ear swelling). The following applies: topical, 10 μl of a 1% solution in acetone (0.1 mg/ear), BALB/c mice, measured 1 to 72 hours. As to the method: The determination of the anti-inflammatory properties in vivo in the model of contact dermatitis induced by benzalkonium chloride was accomplished, if not stated otherwise hereinafter, according to the method published by E. Hyun et al., British Journal of Pharmacology, 2004, 143, S. 618-625.
BALB/c mice (Harlan Winkelmann GmbH, Borchen) were used as laboratory animals. A contact dermatitis was induced by introducing 10 μl per ear of a 5% benzalkonium chloride solution (Sigma) in olive oil/acetone (1:5) to the dorsal side of both ears for each of 8 lab animals per experimental group. This led to a swelling of the ears.
After 1 hour, 3 hours, 5 hours, 7 hours, 24 hours, 48 hours, and 72 hours, the ear thicknesses were measured using a digital caliper (Roth, Karlsruhe).

The nature of series [2]: Determining water solubility in phosphate buffered saline (pH 7.4), HPLC. Format: physicochemical. The following applies: phosphate buffered saline (PBS buffer), aqueous buffer, thermodynamic from solid; PBS buffer pH 7.4; range or bound stated jointly for the listed compounds. The protocol: The water solubility of the compounds was determined by administering aqueous phosphate buffer (pH 7.4) to each respective compound, and the dissolved amount was determined after shaking and centrifugation, as is described in example 12.
The determination of the water solubility of the compound was accomplished, if not hereinafter stated otherwise, with reference to the method published by Kim et al., J. Med. Chem. 2005, 48, 3621-3629.
The mixture was placed in an ultrasonic bath (Sonorex TK52, Bandelin) for 10 minutes and then shaken lightly in a shaking water bath (GFL 1083). Subsequently, the mixture was centrifuged for 10 minutes at 4000×g and room temperature. About 1 ml clear solution was taken from the supernatant. 200 μl of the clear solution were mixed with 250 μl acetonitrile (VWR) and 50 μl 0.1 M phosphoric acid. From this solution, a volume of between 5 μl and 100 μl was injected into an HPLC system (Waters, Waters 717plus Autos ampler, Waters 515 pump, and Waters 2487 UV detector)
For reference solution 1, 2 μl of a 5 mM solution of the respective compound in dimethyl sulfoxide (DMSO) were mixed with 198 μl PBS buffer, 250 μl acetonitrile, and 50 μl 0.1 M phosphoric acid. For reference solution 2, 2 μl of a 5 mM solution of the respective compound in DMSO were mixed with 398 μl PBS buffer, 500 μl acetonitrile, and 100 μl 0.1 M phosphoric acid.
C18 Aqua®-columns from the company Phenomenex (Aqua®, RP18, 75×4.6 mm, 3 μm) were used as the stationary phase.
were determined under corresponding conditions.

The target in series [3] is T1, cytosolic phospholipase A2 (Homo sapiens, UniProt P47712).
T1 construct: cytosolic phospholipase A2 obtained from human thrombocytes; from tissue; host or cells: human thrombocytes (platelets)
T1 sequence (P47712 1-749): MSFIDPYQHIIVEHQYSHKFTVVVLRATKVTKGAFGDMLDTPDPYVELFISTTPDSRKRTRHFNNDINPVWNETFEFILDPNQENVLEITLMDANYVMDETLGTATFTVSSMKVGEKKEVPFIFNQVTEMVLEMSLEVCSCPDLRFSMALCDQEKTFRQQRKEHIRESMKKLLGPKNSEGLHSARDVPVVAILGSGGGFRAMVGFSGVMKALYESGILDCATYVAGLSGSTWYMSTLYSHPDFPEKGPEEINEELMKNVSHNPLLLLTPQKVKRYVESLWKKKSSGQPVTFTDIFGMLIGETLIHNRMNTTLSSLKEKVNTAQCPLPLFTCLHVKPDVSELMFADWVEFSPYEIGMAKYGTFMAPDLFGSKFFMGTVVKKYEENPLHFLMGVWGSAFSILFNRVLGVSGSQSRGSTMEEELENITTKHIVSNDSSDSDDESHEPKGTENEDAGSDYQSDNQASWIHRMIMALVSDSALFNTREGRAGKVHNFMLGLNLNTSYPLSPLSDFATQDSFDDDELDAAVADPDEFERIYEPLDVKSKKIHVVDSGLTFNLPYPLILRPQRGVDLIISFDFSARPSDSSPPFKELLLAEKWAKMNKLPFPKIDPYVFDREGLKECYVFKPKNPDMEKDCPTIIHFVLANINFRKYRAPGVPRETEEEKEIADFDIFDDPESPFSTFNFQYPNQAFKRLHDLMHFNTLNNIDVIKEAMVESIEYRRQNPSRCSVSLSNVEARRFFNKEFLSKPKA
As to the kind of experiment: Inhibition of cytosolic phospholipase A2 isolated from human thrombocytes (arachidonic acid release from SAPC, HPLC-UV). Format: biochemical. The settings on record: for inhibition at 0.1 µM: read-out: inhibition of the activity of cytosolic phospholipase A2 compared to the control value. As to the method:
The effectiveness of the inventive compounds is determinable by referring to the inhibition of the cytosolic phospholipase A2. For this purpose, cytosolic phospholipase A2 that had been isolated from human thrombocytes was used.
The IC50 value of the compounds for the inhibition of cytosolic phospholipase A2 corresponds to the concentration of the compounds that is necessary to reduce the activity of the enzyme by 50%.
The IC50 values were calculated from the values of cytosolic phospholipase A2 inhibition obtained from different concentrations with the help of the Probit model (see Hartke, Mutschler, DAB 9 Kommentar Band 1 S. 733-734, Wissenschaftliche Verlagsgesellschaft Stuttgart 1978).
The effectiveness of the inventive compounds was determined based on the inhibition of cytosolic phospholipase A2. The determination was accomplished, if not described otherwise hereinafter, as was described in Schmitt, M.; Lehr, M., “HPLC assay with UV spectrometric detection for the evaluation of inhibitors of cytosolic phospholipase A2” J. Pharm. Biomed. Anal. 2004, 35, 135-142.
Cytosolic phospholipase A2 that had been isolated from human thrombocytes was used as the enzyme source.
To produce a solution of covesicles from the substrate 1-stearoyl-2-arachidonoyl-sn-glycero-3-phosphocholine (SAPC) (Sigma) and 1,2-dioleoyl-sn-glycerol (DOG) (Sigma), corresponding amounts of the chloroform solution from SAPC (10 mg/ml) and DOG (5 mg/ml) were mixed and then the chloroform was steamed away in a stream of nitrogen. The residue was mixed with enough Tris buffer ([…], 1 mM dithiothreitol, 150 mM NaCl, 1 mM CaCl2, ph 8 at 20° C.) that a concentration for SAPC of 0.26 mM and a concentration for DOG of 0.13 mM were present. The mixture was homogenized for 10 minutes in an ultrasonic bath at 35° C. for the purpose of forming covesicles.
2 μl of the solution of the respective compound in DMSO (made from a 5 mM stock solution in DMSO) or, in the case of the control value, 2 μl of DMSO, were each mixed with 78 μl of the substrate mixture in Eppendorf tubes.
After 10 minutes of preincubation in a water bath at 37° C., 20 μl of the solution of cytosolic phospholipase A2 obtained from human thrombocytes were added to each of the […] and this mixture was incubated for another 60 minutes at 37° C. The incubation preparations contained 0.20 mM SAPC and 0.10 mM DOG per 100 μl. After that, the enzyme reaction was stopped by adding 400 μl of a solution of acetronitrile/methanol/0.1 M aqueous EDTA-solution in ratios 16:15:1 (v/v/v), whereby this solution contained 3 μg/ml nordihydroguaiaretic acid (NDGA) (Sigma) as antioxidant and 1.55 μg/ml 4-undecyloxybenzoic acid as internal standard. Subsequently, the samples were placed in ice for 10 to 15 minutes and then stored at −20° C. until solid phase extraction.
The octadecyl solid phase extraction columns with a bed volume of 200 mg and a capacity of 3 ml (Baker) were initially washed with 6 ml methanol and then with 6 ml water. The samples were diluted with 2 ml 0.005 M aqueous NaOH and then introduced to the solid phase columns. […] The eluate was mixed with 600 μl water. 100 μl of this solution was injected into the HPLC apparatus (Waters, Waters 717plus Autosampler, Waters 515 pump, and Waters 2487 UV detector). Data analysis was accomplished using the software program Millennium. For the column, a Nucleosil 100-3 C18 column (125×3 mm) with a Nucleosil 100-3 C18 pre-column (20×3 mm) (CS-Chromatographie-Service, Langerwehe) was used. The flow rate was 0.4 ml/min; the detection wavelength was 200 nm. A mixture of acetonitrile/water/phosphoric acid (85%) in ratios 770:230:1 (v/v/v) was used for the flow medium. The chromatogram run time was 30 minutes. Before the next injection, the column was always equilibrated for 15 minutes.

Consider `CCCCCCCCc1ccc(OCC(=O)Cn2cc(C(=O)CCCCC(=O)O)c3cc(C(=O)O)ccc32)cc1` [formula (3), 3-(5-carboxypentanoyl)-1-[3-(4-octylphenoxy)-2-oxopropyl]indole-5-carboxylic acid], for which the “increase in ear thickness compared to the negative control” value in series [1] is recorded as “significantly decreased increase in ear thickness”.
One may read the solubility as how much of the substance goes into solution per volume. With `CCCCCCCCc1ccc(OCC(=O)Cn2cc(C(=O)OC)c3cc(C(=O)O)ccc32)cc1` [formula (11), reference compound], the solubility in series [2] is < 1 µg/mL.
With `CCCCCCCCc1ccc(OCC(=O)Cn2cc(C(C)=O)c3cc(C(=O)O)ccc32)cc1` [formula (10), reference compound], in series [2], the solubility is < 1 µg/mL.
A word on the IC50: it is the concentration that inhibits the measured activity by half. Low readings indicate higher potency, high ones lower potency. One may read the inhibition as the drop in the measured response relative to a control, in per cent. For `COC(=O)CCC(=O)c1cn(CC(=O)COc2ccc(Oc3ccc(C(F)(F)F)cc3)cc2)c2ccc(C(=O)O)cc12` [formula (5), 3-(3-methoxycarbonylpropanoyl)-1-{2-oxo-3-[4-(4-trifluormethylphenoxy)phenoxy]propyl}indole-5-carboxylic acid], the solubility in series [2] was in the range of 15 to 35 µg/mL. In series [3], the half-maximal inhibitory concentration (IC50) was found to be 22 nM and the inhibition at 0.1 µM fell in the range of 30 to 97%.
`O=C(O)CCC(=O)c1cn(CC(=O)COc2ccc(Oc3ccc(C(F)(F)F)cc3)cc2)c2ccc(C(=O)O)cc12` [formula (4), 3-(3-carboxypropanoyl)-1-{2-oxo-3-[4-(4-trifluormethylphenoxy)phenoxy]propyl}indole-5-carboxylic acid] came in with a solubility in series [2] of 190 to 410 µg/mL. In series [3], the half-maximal inhibitory concentration (IC50) is 190 nM and the inhibition at 0.1 µM is 30 to 97%.
Take `CCCCCCCCc1ccc(OCC(=O)Cn2cc(C(=O)CCCC(=O)O)c3cc(C(=O)O)ccc32)cc1` [formula (2), 3-(4-carboxybutanoyl)-1-[3-(4-octylphenoxy)-2-oxopropyl]indole-5-carboxylic acid]: in series [3], the inhibition at 0.1 µM was 30 to 97%.
Consider `CCCCCCCCc1ccc(OCC(=O)Cn2cc(C(=O)C(F)(F)F)c3cc(C(=O)O)ccc32)cc1` [formula (6), 1-[3-(4-octylphenoxy)-2-oxopropyl]-3-(2,2,2-trifluoracetyl)indole-5-carboxylic acid], for which the inhibition at 0.1 µM in series [3] was 30 to 97%.

(Values after patent US20100240718A1, “NOVEL HETEROARYL-SUBSTITUTED ACETONE DERIVATIVE, SUITABLE FOR INHIBITING PHOSPHOLIPASE A2” (WESTFALISCHE WILHELMS UNIVERSITÄT MÜNSTER, priority 2007, published 2010).)
